# System: U-937 Zelllinie
# Experiment: CDDplus nucleosome ELISA (apoptosis detection)
# Format: cell-based
# Conditions: U-937, 0.1-1000nM, 4-24h
# Method: Zum Nachweis der Nucleosomen Partikel wurde der von der Firma Roche Molecular Biochemicals beschriebene CDD^plus Nucleosomen ELISA Test eingesetzt. Hierzu untersuchte man die Verbindung 2 an der U-937 Zelllinie bei unterschiedlichen Konzentrationen (0.1-1000nM) und bei unterschiedlicher zeitlicher Behandlung (4-24h) (s. Graph 7). [formula]
compound,measurement,setting,value
"O=C(Nc1ccc2ncccc2c1)C(=O)c1cn(Cc2ccc(Cl)cc2)c2ccccc12 [Verbindung 2, 2-[1-(4-Chlor-benzyl)-1 H-indol-3-yl]-2-oxo-N-chinolin-6-yl-acetamid]",Nucleosomen im Zelllysat,cell lysate,konzentrations- und zeitabhängiger Anstieg von Nucleosomen im Zelllysat
same,Nucleosomen im Zellkulturüberstand,culture supernatant,kein signifikanter Anstieg

# Reference: patent EP1484329A1, “Indole derivatives with apoptosis inducing activity” (Zentaris GmbH, priority 2003, dated 2004)
